Experiment: recombinant UMI read abundance after kanamycin selection (control-corrected) (log10(CPM+1)); higher = more efficient recombination; extreme values may be limits of the assay; sequences stand for … in AGTGCAGAGAAAATCGGCCAGTTTTCTCTGCCTGCAGTCCGCATGCCGTGGGACCCCTTGGGTTCTAACCTGTTGCCTAGATTTATGCAGCGGACTGCCTTTCTCCCAAAGTGATAAACCGG…AGGTTGGTTTCACT; site = the 11-nt donor
Procedure: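 Pooled E. coli donor-specificity screen for the IS621 bridge recombinase. Each library member carries a reprogrammed 11-nt donor and a full-length LE bridge RNA expressed in cis from the natural promoter, with a paired donor-binding loop (8-nt LDG + 4-nt RDG) and a target-binding loop fixed to T5. It is co-electroporated with a T5 target plasmid; recombinase is induced with 0.07 mM IPTG and recombinants are selected on kanamycin. UMIs are counted as CPM, averaged over two biological replicates and corrected by the unselected control. Molecule = full bridge RNA written as DNA, built from the T5 scaffold: LDG = donor specificity nt 1-8, RDG = reverse complement of nt 8-11.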
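Note: IS621 bridge recombinase in Escherichia coli cells against a fixed T5 target plasmid.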

| Sequence | recombinant UMI read abundance (log10) |
| --- | --- |
| AACCGTCCATGGACCGGTTTTCCCGGTAATCCGTATTTGAT (site AACCGACCTAT) | 0 |
| AACCGTCCATGGACCGGTTTTCCCGGTAATCCGTATTTGAT (site AACCGCCCTAT) | 0.00356 |
| AACCGTCCATGGACCGGTTTTCCCGGTAATCCGTATTTGAT (site AACCGGCCTAT) | 0.00769 |
| AACCGTCCATGGACCGGTTTTCCCGGTAATCCGTATTTGAT (site AACCGTACTAT) | 0.0096 |
| AACCGTCCATGGACCGGTTTTCCCGGTAATCCGTATTTGAT (site AACCGTCCTAA) | 0.0165 |
| AACCGTCCATGGACCGGTTTTCCCGGTAATCCGTATTTGAT (site AACCGTCCTAC) | 0.0101 |
| AACCGTCCATGGACCGGTTTTCCCGGTAATCCGTATTTGAT (site AACCGTCCTAG) | 0 |
| AACCGTCCATGGACCGGTTTTCCCGGTAATCCGTATTTGAT (site AACCGTCCTAT) | 0.252 |
| AACCGTCCATGGACCGGTTTTCCCGGTAATCCGTATTTGAT (site AACCGTCCTCT) | 0.00582 |
| AACCGTCCATGGACCGGTTTTCCCGGTAATCCGTATTTGAT (site AACCGTCCTGT) | 0 |
| AACCGTCCATGGACCGGTTTTCCCGGTAATCCGTATTTGAT (site AACCGTCCTTT) | 0.0201 |
| AACCGTCCATGGACCGGTTTTCCCGGTAATCCGTATTTGAT (site AACCGTGCTAT) | 0.0154 |
| AACCGTCCATGGACCGGTTTTCCCGGTAATCCGTATTTGAT (site AACCGTTCTAT) | 0.00303 |
| AACCGTCCATGGACCGGTTTTCCCGGTAATCCGTATTTGAT (site AACCTTCCTAT) | 0.0119 |
| AACCGTCCATGGACCGGTTTTCCCGGTAATCCGTATTTGAT (site AACGGTCCTAT) | 0.00654 |
| AACCGTCCATGGACCGGTTTTCCCGGTAATCCGTATTTGAT (site AACTGTCCTAT) | 0.00892 |
| AACCGTCCATGGACCGGTTTTCCCGGTAATCCGTATTTGAT (site AAGCGTCCTAT) | 0 |
| AACCGTCCATGGACCGGTTTTCCCGGTAATCCGTATTTGAT (site AATCGTCCTAT) | 0.0138 |
| AACCGTCCATGGACCGGTTTTCCCGGTAATCCGTATTTGAT (site ACCCGTCCTAT) | 0 |

| Sequence | recombinant UMI read abundance (log10) |
| --- | --- |
| AACCGTCCATGGACCGGTTTTCCCGGTAATCCGTATTTGAT (site AGCCGTCCTAT) | 0.0654 |
| AACCGTCCATGGACCGGTTTTCCCGGTAATCCGTATTTGAT (site ATCCGTCCTAT) | 0.00558 |
| AACCGTCCATGGACCGGTTTTCCCGGTAATCCGTATTTGAT (site CACCGTCCTAT) | 0.00991 |
| AACCGTCCATGGACCGGTTTTCCCGGTAATCCGTATTTGAT (site GACCGTCCTAT) | 0.00938 |
| AACCGTCCATGGACCGGTTTTCCCGGTAATCCGTATTTGAT (site TACCGTCCTAT) | 0.0405 |
| AACCGTGCATGGACCGGTTTTCCCGGTAATCCGTATTTGAT (site AACCGTACTAT) | 0.902 |
| AACCGTGCATGGACCGGTTTTCCCGGTAATCCGTATTTGAT (site AACCGTCCTAT) | 0.0261 |
| AACCGTGCATGGACCGGTTTTCCCGGTAATCCGTATTTGAT (site AACCGTGCTAT) | 1.37 |
| AACCGTGCATGGACCGGTTTTCCCGGTAATCCGTATTTGAT (site AACCGTTCTAT) | 0 |
| AACCTAGCATGGACCGGTTTTCCCGGTAATCCGTATTTGTT (site AACCTAGCTAA) | 0.0287 |
| AACCTAGCATGGACCGGTTTTCCCGGTAATCCGTATTTGTT (site ACCCTAGCTAA) | 0.542 |
| AACCTAGCATGGACCGGTTTTCCCGGTAATCCGTATTTGTT (site AGCCTAGCTAA) | 0.024 |
| AACCTAGCATGGACCGGTTTTCCCGGTAATCCGTATTTGTT (site ATCCTAGCTAA) | 0.0182 |
| AACCTCCCATGGACCGGTTTTCCCGGTAATCCGTATTTGGC (site AACCTCCCTGC) | 0 |
| AACCTTCCATGGACCGGTTTTCCCGGTAATCCGTATTTGCC (site AACCTTCCTGG) | 0 |
| AACGAAACATGGACCGGTTTTCCCGGTAATCCGTATTTGCC (site AACGAAACTGG) | 2.4 |
| AACGGGGCATGGACCGGTTTTCCCGGTAATCCGTATTTGCG (site AACGGGGCTCG) | 1.19 |
| AACGGTACATGGACCGGTTTTCCCGGTAATCCGTATTTGGG (site AACGGTACTCC) | 0.0069 |
| AACGTGTCATGGACCGGTTTTCCCGGTAATCCGTATTTGAC (site AAAGTGTCTGT) | 0 |

| Sequence | recombinant UMI read abundance (log10) |
| --- | --- |
| AACGTGTCATGGACCGGTTTTCCCGGTAATCCGTATTTGAC (site AACGTGTCTGT) | 0 |
| AACGTGTCATGGACCGGTTTTCCCGGTAATCCGTATTTGAC (site AAGGTGTCTGT) | 0 |
| AACGTGTCATGGACCGGTTTTCCCGGTAATCCGTATTTGAC (site AATGTGTCTGT) | 0 |
| AACTCAGCATGGACCGGTTTTCCCGGTAATCCGTATTTGTA (site AACTCAGCTTA) | 1.62 |
| AACTCCGCATGGACCGGTTTTCCCGGTAATCCGTATTTGAC (site AACTCCGCTGT) | 1.92 |
| AACTCCTCATGGACCGGTTTTCCCGGTAATCCGTATTTGCC (site AACTCCTCTGG) | 1.8 |
| AACTCCTCATGGACCGGTTTTCCCGGTAATCCGTATTTGCC (site CACTCCTCTGG) | 2.43 |
| AACTCCTCATGGACCGGTTTTCCCGGTAATCCGTATTTGCC (site GACTCCTCTGG) | 1.42 |
| AACTCCTCATGGACCGGTTTTCCCGGTAATCCGTATTTGCC (site TACTCCTCTGG) | 2.61 |
| AACTCTACATGGACCGGTTTTCCCGGTAATCCGTATTTGTG (site AACTCTACTCA) | 0.146 |
| AACTGCACATGGACCGGTTTTCCCGGTAATCCGTATTTGCT (site AACTGCACTAG) | 1.96 |
| AACTTGCCATGGACCGGTTTTCCCGGTAATCCGTATTTGGC (site AACTTGCCTGC) | 0 |
| AACTTGGCATGGACCGGTTTTCCCGGTAATCCGTATTTGGA (site AACTTGGCTTC) | 0.368 |
| AACTTGGCATGGACCGGTTTTCCCGGTAATCCGTATTTGGA (site CACTTGGCTTC) | 0.467 |
| AACTTGGCATGGACCGGTTTTCCCGGTAATCCGTATTTGGA (site GACTTGGCTTC) | 0.439 |
| AACTTGGCATGGACCGGTTTTCCCGGTAATCCGTATTTGGA (site TACTTGGCTTC) | 0.393 |
| AAGAACGCATGGACCGGTTTTCCCGGTAATCCGTATTTGGG (site AAGAACGCTCC) | 0.564 |
| AAGAACGCATGGACCGGTTTTCCCGGTAATCCGTATTTGGG (site AAGCACGCTCC) | 0.0226 |
| AAGAACGCATGGACCGGTTTTCCCGGTAATCCGTATTTGGG (site AAGGACGCTCC) | 0.0122 |
